Test results reported in ChEMBL document CHEMBL4138146, “A Schmidt rearrangement-mediated synthesis of novel tetrahydro-benzo[1,4]diazepin-5-ones as potential anticancer and antiprotozoal agents” (Eur J Med Chem, 2017).

Experiments:
Type in all cases: functional
NCI-H322M = assay: Growth inhibition of human NCI-H322M cells assessed as cell growth at 10^-5 M incubated for 48 hrs by sulforhodamine B assay relative to control; details: read-out: Activity
MDA-MB-468 = assay: Growth inhibition of human MDA-MB-468 cells assessed as cell growth at 10^-8 M incubated for 48 hrs by sulforhodamine B assay relative to control; details: MDA-MB-468, 48 h, read-out: Activity
SK-OV-3 = assay: Growth inhibition of human SKOV3 cells assessed as cell growth at 10^-8 M incubated for 48 hrs by sulforhodamine B assay relative to control; details: SK-OV-3, 48 h, read-out: Activity
T47D = assay: Growth inhibition of human T47D cells assessed as cell growth at 10^-5 M incubated for 48 hrs by sulforhodamine B assay relative to control; details: read-out: Activity
Malme-3M = assay: Growth inhibition of human MALME-3M cells assessed as cell growth at 10^-4 M incubated for 48 hrs by sulforhodamine B assay relative to control; details: read-out: Activity

SMILES: CCCCOc1nc2ccccc2cc1C1CNC(=O)c2ccccc2N1 (stereo not given)
- growth at 10 µM (NCI-H322M): 31%
- growth at 0.01 µM (MDA-MB-468): 78%
- growth at 0.01 µM (SK-OV-3): 88%
- growth at 10 µM (T47D): 36%
- growth at 100 µM (Malme-3M): -53%
